Experimental data taken from ChEMBL document CHEMBL3886610, “Perfluorinated 5,6-dihydro-4H-1,3-oxazin-2-amine compounds as beta-secretase inhibitors and methods of use” (2016).

Key:
[1] = target: T1, Beta-secretase 1 (Homo sapiens, UniProt P56817); assay: In Vitro BACE Cell-Based Assay: The cell-based assay measures inhibition or reduction of Aβ40 in conditioned medium of test compound treated cells expressing amyloid precursor protein. Cells stably expressing Amyloid Precursor Protein (APP) were plated at a density of 40K cells/well in 96 well plates (Costar). The cells were cultivated for 24 hours at 37° C. and 5% CO2 in DMEM supplemented with 10% FBS. The test compounds were then added to cells in 10-point dose response concentrations with the starting concentration being either 100 uM or 10 uM. The compounds were diluted from stock solutions in DMSO and the final DMSO concentration of the test compounds on cells was 0.1%. After 24 h of incubation with the test compounds the supernatant conditioned media was collected and the Aβ 40 levels were determined using a sandwich ELISA.
T1 sequence (P56817 whole entry): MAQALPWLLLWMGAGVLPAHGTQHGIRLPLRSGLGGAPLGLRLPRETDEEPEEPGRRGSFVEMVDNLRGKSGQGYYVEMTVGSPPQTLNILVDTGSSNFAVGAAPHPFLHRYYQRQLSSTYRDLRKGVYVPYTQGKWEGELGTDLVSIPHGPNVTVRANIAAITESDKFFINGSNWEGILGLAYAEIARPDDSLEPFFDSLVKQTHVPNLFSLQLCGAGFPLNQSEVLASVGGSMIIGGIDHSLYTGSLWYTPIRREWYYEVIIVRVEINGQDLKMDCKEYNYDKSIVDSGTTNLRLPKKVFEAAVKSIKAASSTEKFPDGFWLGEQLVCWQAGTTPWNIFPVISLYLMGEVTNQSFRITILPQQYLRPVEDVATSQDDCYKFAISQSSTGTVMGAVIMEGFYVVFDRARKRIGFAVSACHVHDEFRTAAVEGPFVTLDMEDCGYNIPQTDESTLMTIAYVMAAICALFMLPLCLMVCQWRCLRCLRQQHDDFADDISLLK

[2] = target: T1, Beta-secretase 1; assay: In Vitro Enzymatic BACE FRET Assay: The assay buffer used in this screen is 0.05 M acetate, pH 4.2, 10% DMSO final, 100 uM genapol (which is a nonionic detergent, below its Critical Micelle Concentration). The Beta Secretase enzyme (0.2 nM) is pre-incubated for one hour with inhibitors, typically in about 1 uL of DMSO according to a serial dilution, are added thereto. This assay is effectively started by the addition of FRET substrate (50 nM) and the combination is incubated for one hour. The FRET assay is terminated with by addition of Tris buffer, which raises the pH to neutrality, and the fluorescence is determined. The FRET substrate is a peptide with commercially available fluorophore and quencher, on opposite sides of the BACE cleavage site. Proteolytic cleavage of the FRET substrate releases quenching of fluorescence (excitation 488 nm and […]).
[3] = target: Cathepsin D (Homo sapiens, UniProt P07339); assay: In Vitro Enzymatic Cathepsin D FRET Assay: Recombinant Cat D was expressed in CHO cells. The assay buffer for CathepsinD is 0.05 M citrate pH 3.5, 10% DMSO final, 5 mM CHAPS. The Cat D enzyme (9 nM) is pre-incubated for one hour with inhibitors, typically in about 1 uL of DMSO according to a serial dilution, is added thereto. The assays are effectively started by the addition of different FRET substrates (20 nM for Cat D) and the combination is incubated for one hour. The FRET assay is terminated with by addition of Tris buffer, which raises the pH to neutrality, and the fluorescence is determined. The FRET substrate is a peptide with commercially available fluorophore and quencher, on opposite sides of the BACE cleavage site. […] Proteolytic cleavage of the FRET substrate releases quenching of fluorescence (Cat D excitation 500 nm and emission 580 nm).; assay type: cell-based
Cathepsin D, sequence (P07339 65-162 limits assumed): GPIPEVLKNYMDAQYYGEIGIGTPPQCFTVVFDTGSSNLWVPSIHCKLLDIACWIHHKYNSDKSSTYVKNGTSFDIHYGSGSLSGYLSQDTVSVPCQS
Cathepsin D, sequence (P07339 169-412 limits assumed): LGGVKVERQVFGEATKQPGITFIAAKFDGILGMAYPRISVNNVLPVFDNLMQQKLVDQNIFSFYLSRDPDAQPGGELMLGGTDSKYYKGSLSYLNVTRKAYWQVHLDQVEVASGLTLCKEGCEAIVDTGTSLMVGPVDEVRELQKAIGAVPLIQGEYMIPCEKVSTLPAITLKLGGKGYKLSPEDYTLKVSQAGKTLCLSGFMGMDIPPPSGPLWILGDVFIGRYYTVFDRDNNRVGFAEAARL

| IC50 [1] [nM] | IC50 [2] [nM] | IC50 [3] [mM] | IC50 ([3]; cho) [mM] | SMILES |
| --- | --- | --- | --- | --- |
| 12 | 10 | 1.19 | – | C#CCOc1ccc(C(=O)Nc2cc(F)c(F)c([C@]3(C)C[C@@H](C(F)(F)F)OC(N)=N3)c2)nc1 |
| 487 | 120 | – | > 0.4 | Cc1cc(OCC2CC2)cnc1C(=O)Nc1ccc(F)c([C@]2(CF)C[C@@H](C(F)(F)F)OC(N)=N2)c1 |

| SMILES | IC50 [1] [nM] | IC50 [2] [nM] | IC50 [3] [mM] | IC50 ([3]; cho) [mM] |
| --- | --- | --- | --- | --- |
| COC(=O)c1ccnc(Oc2ccc(F)c([C@]3(CF)C[C@@H](C(F)(F)F)OC(N)=N3)c2)c1 | 3560 | – | – | – |
